Laboratory results as given in ChEMBL document CHEMBL5131529, “KRAS Inhibitors and Target Engagement Technology: From Undruggable to Druggable Targets in Cancer Therapeutics” (ACS Med Chem Lett, 2022).

What was measured:
GTPase KRas [1] = molecular target: T1, GTPase KRas (Homo sapiens, UniProt P01116, G12C); experiment: Inhibition of BODIPY loaded KRAS G12C mutant (unknown origin) assessed as inhibition of GDP-GTP exchange rate in presence of SOS1/GppNHp incubated for 2 hr by BODIPY fluorescence assay
T1 sequence (P01116 whole entry G12C): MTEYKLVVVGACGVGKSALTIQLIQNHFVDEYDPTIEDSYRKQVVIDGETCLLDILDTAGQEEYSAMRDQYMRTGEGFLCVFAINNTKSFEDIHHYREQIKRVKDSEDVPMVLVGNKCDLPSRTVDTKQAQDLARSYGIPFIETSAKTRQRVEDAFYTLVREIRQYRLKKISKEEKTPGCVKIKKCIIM

GTPase KRas [2] = molecular target: T1, GTPase KRas; experiment: Inhibition of KRAS G12C mutant in human MIA PaCa-2 cells assessed as reduction in ERK phosphorylation incubated for 2 to 4 hrs by HTRF assay; assay type: cell-based

Compound	IC50 (GTPase KRas [1]) [µM]	IC50 (GTPase KRas [2]) [µM]	IC50 (GTPase KRas [2]; mia paca-2) [µM]
C=Cc1ncc2n1CCN(c1nc(OCCN3CCOCC3)nc3c(F)c(-c4cc(O)cc5ccccc45)c(Cl)cc13)C2	0.1	5	–
C=Cc1ncc2n1CCN(c1nc(=O)n(-c3c(C)ccnc3C(C)C)c3nc(-c4c(O)cccc4F)c(F)cc13)C2	0.1	5	5
C=Cc1ncc2n1CCN(c1nc(OCC3CCCN3C)nc3c(F)c(-c4c(C)ccc5[nH]ncc45)c(Cl)cc13)C2 (stereo not drawn)	0.1	5	–
C=Cc1ncc2n1CCN(c1nc(OC3CCCN(C)C3)nc3c(F)c(-c4cc(O)cc5ccccc45)c(Cl)cc13)C2 (stereo not drawn)	0.1	5	–
C=Cc1ncc2n1CCN(c1nc(OC3CCN(C)CC3)nc3c(F)c(-c4cc(O)cc5ccccc45)c(Cl)cc13)C2	0.1	5	–
C=Cc1ncc2n1CCN(c1nc(OCC3CCCN3C)nc3c(F)c(-c4c(O)cccc4F)c(Cl)cc13)C2 (stereo not drawn)	0.1	5	–
C=Cc1ncc2n1CCN(c1nc(OC[C@@H]3CCCN3C)nc3c(F)c(-c4cc(O)cc5ccccc45)c(Cl)cc13)C2	0.1	1	–
C=Cc1ncc2n1CCN(c1nc(=O)n(C(C)C)c3nc(-c4c(O)cccc4F)c(F)cc13)C2	0.1	5	–
C=Cc1ncc2n1CCN(c1nc(OCC3CCCN3C)nc3c(F)c(-c4cc(O)cc5ccccc45)c(Cl)cc13)C2 (stereo not drawn)	≤ 0.1	1	–
C=Cc1ncc2n1CCN(c1nc(=O)n(CC3CC3)c3nc(-c4c(O)cccc4F)c(F)cc13)C2	0.1	5	–
C=Cc1ncc2n1CCN(c1nc(OCCN(C)C)nc3c(F)c(-c4cc(O)cc5ccccc45)c(Cl)cc13)C2	0.1	1	–
